We go through 14 compounds from ChEMBL document CHEMBL3600349 (Bioorg Med Chem Lett, 2015).

One data set relates to Rattus norvegicus. Description: Antiobesity activity in diet-induced obese Wistar rat model assessed as reduction of body weight at 5 mg/kg, po qd after 4 weeks. In kind it is functional. Also on record: scale not given: the % may be the effect or the level left.
Data set [1] in a line: Lipophilicity, log P of the compound by HPLC analysis. In kind it is physicochemical.
A short description of data set [2]: Half life in rat liver microsomes. In kind it is ADME.
Data set [3] is described as follows: Intrinsic clearance in human hepatocytes assessed per 10^6 cells. It counts as ADME, cell-based, Hepatocyte. The conditions noted are these: read-out: CLH.
Another data set concerns U-937. Description: Toxicity in human U937 cells assessed as first effect concentration for phospholipidosis by nile red uptake assay. In kind it is cell-based.
In data set [4] the target is Melanin-concentrating hormone receptor 1 (Homo sapiens, UniProt Q99705). Description: Displacement of [125I]-MCH from human MCH-R1 expressed in CHO/Galpha16 cells after 60 mins by scintillation counting. In kind it is cell-based. Background: Displacement assays read how much labelled ligand stays bound in the presence of the test substance.
In the next data set the target is hERG (KCNH2) (Homo sapiens, UniProt Q12809). Nature of the data set: Inhibition of human ERG at 10 uM by patch clamp assay. In general terms: The patch-clamp technique gives a direct electrical read-out from membranes.
The species named for data set [5] is Homo sapiens. Description: Selectivity ratio, ratio of muscarinic M1 receptor (unknown origin) to human MCH-R1.
For data set [6], the species on record is Homo sapiens. Nature of the data set: Selectivity ratio, ratio of 5HT2A receptor (unknown origin) to human MCH-R1.

Sequence of hERG (KCNH2) (Q12809 whole entry): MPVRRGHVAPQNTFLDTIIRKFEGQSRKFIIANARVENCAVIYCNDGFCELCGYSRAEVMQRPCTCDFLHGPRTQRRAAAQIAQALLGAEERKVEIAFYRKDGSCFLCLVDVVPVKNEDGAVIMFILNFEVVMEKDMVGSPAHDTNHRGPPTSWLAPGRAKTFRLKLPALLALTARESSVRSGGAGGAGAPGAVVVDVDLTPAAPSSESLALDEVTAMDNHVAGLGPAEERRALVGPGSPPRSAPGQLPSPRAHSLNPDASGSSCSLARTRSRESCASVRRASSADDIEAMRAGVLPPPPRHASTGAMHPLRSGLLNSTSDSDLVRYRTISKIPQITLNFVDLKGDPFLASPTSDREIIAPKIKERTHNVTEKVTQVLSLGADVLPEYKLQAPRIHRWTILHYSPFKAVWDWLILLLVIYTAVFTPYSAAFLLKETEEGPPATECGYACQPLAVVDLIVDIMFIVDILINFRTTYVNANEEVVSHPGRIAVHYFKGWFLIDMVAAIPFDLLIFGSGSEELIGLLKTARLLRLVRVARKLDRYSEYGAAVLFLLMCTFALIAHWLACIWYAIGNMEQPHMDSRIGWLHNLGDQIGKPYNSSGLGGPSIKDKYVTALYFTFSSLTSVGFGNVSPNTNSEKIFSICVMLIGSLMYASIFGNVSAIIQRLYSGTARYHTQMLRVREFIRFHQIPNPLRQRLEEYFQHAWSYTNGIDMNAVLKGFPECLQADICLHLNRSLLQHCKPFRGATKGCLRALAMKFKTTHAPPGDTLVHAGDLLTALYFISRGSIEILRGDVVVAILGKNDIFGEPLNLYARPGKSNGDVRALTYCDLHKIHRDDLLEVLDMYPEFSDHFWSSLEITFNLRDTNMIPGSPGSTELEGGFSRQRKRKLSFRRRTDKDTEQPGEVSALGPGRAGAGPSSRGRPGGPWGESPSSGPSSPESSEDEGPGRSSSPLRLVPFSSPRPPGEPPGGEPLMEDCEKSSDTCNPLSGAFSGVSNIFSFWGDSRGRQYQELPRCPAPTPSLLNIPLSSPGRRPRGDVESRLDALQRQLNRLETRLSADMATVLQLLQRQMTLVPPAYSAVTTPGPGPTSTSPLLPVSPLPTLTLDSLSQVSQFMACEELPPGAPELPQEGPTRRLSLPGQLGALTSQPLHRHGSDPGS
Sequence of Melanin-concentrating hormone receptor 1 (Q99705 whole entry): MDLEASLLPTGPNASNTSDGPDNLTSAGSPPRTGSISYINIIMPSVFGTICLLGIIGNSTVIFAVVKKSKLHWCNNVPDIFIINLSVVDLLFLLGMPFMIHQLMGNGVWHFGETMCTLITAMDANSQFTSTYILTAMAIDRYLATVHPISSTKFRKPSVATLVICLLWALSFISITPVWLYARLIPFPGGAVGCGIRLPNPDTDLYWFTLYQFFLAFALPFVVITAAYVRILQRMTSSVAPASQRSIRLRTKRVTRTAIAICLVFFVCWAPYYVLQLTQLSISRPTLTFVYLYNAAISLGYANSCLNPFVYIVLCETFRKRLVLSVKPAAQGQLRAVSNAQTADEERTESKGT

In the case of `CC(C)CC(N(C)C)C1(c2ccc(Cl)cc2)CCC1` (stereo not given) [SIBUTRAMINE], the Activity in the data set on Rattus norvegicus is listed as 10.9%.

As a reminder, the logP is the decadic logarithm of the partition coefficient of the neutral form, usually between octanol and water. Broadly, the half-life is the time needed for the level to fall by half in the phase considered. For `Cc1cc(CN(C)C)ccc1C(=O)Cn1ncc(OCc2ccc(Br)cn2)cc1=O`, the logP in [1] was 3.4. For the same compound, the half-life in data set [2] turned out to be 29 min. Besides, the hepatocyte CLint in [3] is 12 µL/min/1e6 cells. The Activity in the data set on U-937 came to 50 µM.

As for `Cc1cc(CN(C)C)ccc1C(=O)Cn1ncc(OCc2ccc(Cl)cn2)cc1=O`, the logP in data set [1] was determined as 3.1. The half-life in data set [2] is above 45 min. Further, the Activity with U-937 came out at 50 µM.

One may read the IC50 as the concentration needed to halve the response being measured. A word on the inhibition: it is the relative decrease from the control value, in per cent. In data set [4], `Cc1cc(CN(C)C)ccc1C(=O)Cn1ncc(OCc2ccccc2)cc1=O` displayed an IC50 of 8.7 nM. For the same compound, in data set [1], the logP was 3.8. In data set [2], this compound gave a half-life of 15 min. Further, the hepatocyte CLint in data set [3] amounted to 4.8 µL/min/1e6 cells. Further, the inhibition at 10 µM at hERG (KCNH2) was 88%. In addition, in the data set on U-937, the Activity is 50 µM.

Turning to `Cc1cc(CN(C)C)ccc1C(=O)Cn1ccc(OCc2ccccc2)cc1=O`, the logP in data set [1] came to 3.3. This compound returned a half-life in data set [2] of 24 min. For the same compound, the hepatocyte CLint in [3] came to 4 µL/min/1e6 cells. The same compound registered an inhibition at 10 µM against hERG (KCNH2) of 67%. Moreover, in the data set with U-937, the Activity was determined as 50 µM. In addition, the Ratio in the data set listed under Homo sapiens [5] and in the data set listed under Homo sapiens [6] was above 200 each time.

In [4], `CN(C)Cc1ccc(C(=O)Cn2ncc(OCc3ccccc3)cc2=O)cc1` displayed an IC50 of 10 nM. Besides, the logP in [1] amounted to 3.6. This compound had a half-life in data set [2] of 6 min. For the same compound, the hepatocyte CLint in [3] is 17 µL/min/1e6 cells.

`Cc1cc(CN(C)C)ccc1C(=O)Cn1ccc(OCc2ccc(Cl)cn2)cc1=O` displayed an IC50 in data set [4] of 33 nM. The same compound showed a logP in data set [1] of 2.7. Also, in [2], the half-life was 44 min. Moreover, in data set [3], the hepatocyte CLint is 14 µL/min/1e6 cells. Besides, at 10 µM the inhibition on hERG (KCNH2) was 41%. For the same compound, the Activity in the data set with U-937 was determined as 50 µM.

As for `CN(C)Cc1ccc(CCn2ccc(OCc3ccccc3)cc2=O)cc1`, the IC50 in [4] turned out to be 7 nM. In addition, in [1], the logP was determined as 3.2. Moreover, in data set [2], the half-life came out at 5 min. The Activity in the data set on U-937 is 100 µM.

Take `Cc1cc(CN(C)C)ccc1C(=O)Cn1ccc(OCc2ccc(Br)cn2)cc1=O`: in data set [1], the logP amounted to 2.8. The compound further came in with a half-life in data set [2] of 45 min. In addition, in data set [3], the hepatocyte CLint was 21 µL/min/1e6 cells. The compound further came in with an inhibition at 10 µM against hERG (KCNH2) of 42%. Also, the Activity with U-937 was 50 µM.

As to `CN(C)Cc1ccc(C(=O)Cn2ccc(OCc3ccc(Br)cn3)cc2=O)cc1`, the half-maximal inhibitory concentration (IC50) in data set [4] amounted to 28 nM. The same compound registered a logP in [1] of 2.5. Besides, in [2], the half-life was 32 min. For the same compound, the hepatocyte CLint in data set [3] is 66 µL/min/1e6 cells.

As for `CN(C)Cc1ccc(C(=O)Cn2ncc(OCc3ccc(Cl)cn3)cc2=O)cc1`, the IC50 in [4] worked out at 25 nM. Moreover, the logP in data set [1] is 2.9. In [2], this compound displayed a half-life of 14 min. On hERG (KCNH2), the inhibition at 10 µM came out at 39%. The Activity with U-937 came to 50 µM.

As to `CN(C)Cc1ccc(C(=O)Cn2ccc(OCc3ccccc3)cc2=O)cc1`, in data set [4], the 50% inhibitory concentration (IC50) turned out to be 13 nM. The logP in [1] was determined as 3. This compound had a half-life in [2] of 23 min. Further, in data set [3], the hepatocyte CLint is 24 µL/min/1e6 cells. The compound further yielded an inhibition at 10 µM at hERG (KCNH2) of 63%. Besides, the Activity with U-937 was determined as 100 µM. Moreover, the Ratio in the data set filed under Homo sapiens [5] and in the data set listed under Homo sapiens [6] was above 200 each time.

In data set [4], `CN(C)Cc1ccc(C(=O)Cn2ncc(OCc3ccc(Br)cn3)cc2=O)cc1` gave an IC50 of 22 nM. In addition, the logP in data set [1] worked out at 3.1. Moreover, the half-life in [2] was 7 min. Besides, the hepatocyte CLint in data set [3] was determined as 58 µL/min/1e6 cells.

For the compound `CN(C)Cc1ccc(C(=O)Cn2ccc(OCc3ccc(Cl)cn3)cc2=O)cc1`, in data set [4], the IC50 was 41 nM. Also, in data set [1], the logP was found to be 2.3. Moreover, the half-life in data set [2] was above 45 min. For the same compound, the hepatocyte CLint in [3] amounted to 69 µL/min/1e6 cells.
